Laboratory results as given in BigSolDB 2.1.

NC(=O)N1c2ccccc2CC(=O)c2ccccc21
solubility (mole fraction)
Conditions	in DMAc	in DMF	in DMSO	in NMP	in transcutol	in water
288.15 K	0.0256	0.0202	0.0312	0.0346	0.00418	5.42e-06
293.15 K	0.0189	0.0212	0.0339	0.0358	0.00437	5.85e-06
298.15 K	0.0205	0.0174	0.0367	0.0369	0.00456	6.3e-06
303.15 K	0.0222	0.0183	0.0259	0.038	0.00475	6.74e-06
308.15 K	0.0239	0.0193	0.0285	0.0335	0.00495	7.2e-06
